Laboratory results published in patent US20110059967A1, “THERAPEUTIC COMPOUNDS” (Allergan Inc., priority 2008, published 2011).
Entries after “also recorded” stand apart in the source; their conditions may differ.

Tested on: lashes and adjacent hairs
Assay: Observation of lashes and adjacent hairs in glaucoma patients treated with bimatoprost in only one eye
Type: in vivo
Conditions: glaucoma patients taking bimatoprost in only one eye
Excerpt: In the course of treating patients having glaucoma, treatment may only be appropriate in one eye. […] The lash appearance on the lids of the treated eyes would have appeared quite attractive if it represented a bilateral phenomenon. As a result of its asymmetric nature, the long lash'es on one side could be construed as disturbing from a cosmetic standpoint. A systemic examination was preformed as a result of the asymmetric phenomenon. It soon became apparent that this altered appearance was not an isolated finding. […] Definite differences could be identified to varying degrees in the lashes and adjacent hairs of all patients who were taking the drug on a unilateral basis for longer than 6 months.
The changes in the lashes were apparent on gross inspection in several patients once attention was focused on the issue. In those with light colored hair and lashes, the differences were only seen easily with the aid of the high magnification and lighting capabilities of the slit lamp biomicroscope. In the course of glaucoma follow-up examination, attention is generally immediately focused on the eye itself. As a result of the high power magnification needed only one eye is seen at a time and the eye is seen at a high enough power that the lashes are not in focus. […]

## CCNC(=O)CCC/C=C\C[C@@H]1[C@@H](/C=C/[C@@H](O)CCc2ccccc2)[C@H](O)C[C@@H]1O [bimatoprost]
  hair growth: lashes of the treated eye compared with the non-treated eye: longer, thicker, and fuller; also recorded: hair growth is stimulated
